# Measurements: patent publication US11759474B2, “Use of SGLT-2 inhibitors in the drying-off of non-human mammals” (Boehringer Ingelheim Vetmedica GmbH, priority 2020, dated 2023)
# How the values were obtained:
# [1] = Velagliflozin plasma levels after single i.v. dosing in lactating cows; type: in vivo, Holstein-Frisian cows; details: i.v. 0.03, 0.3, 3 mg/kg bodyweight, n=4 lactating cows; FIG. 1
# Procedure: (§1) Velagliflozin treatment is tested in n=4 lactating Holstein-Frisian cows. In weekly intervals, velagliflozin is administered intravenously (i.v.) in increasing doses (0.03 mg/kg bodyweight-0.3 mg/kg bodyweight-3 mg/kg bodyweight) in the morning after AM (ante meridian) milking into the right jugular vein in a volume of 2.5 ml of a propylene glycol based solution per 100 kg body weight. Blood samples for determination of velagliflozin plasma levels and urine samples for determination of glucose and creatinine levels are collected one day prior to treatment and ˜8 hours, ˜24 hours and ˜48 hours post treatment and stored frozen until being analysed. Blood glucose and ketone body (beta-hydroxy-butyrate) concentrations are determined immediately after blood collection at the same time points. The total urinary creatinine excreted per day is rather constant in mammals, thus, since urine volume was not determined, the glucose to creatinine ratio was calculated as a surrogate of the total glucose excretion. All animals are milked twice daily, in the morning (ante meridian—AM) and in the late afternoon (post meridian—PM). Throughout the study, milk yield is recorded as kg per animal per milking.
# [2] = Blood glucose and ketone body (beta-hydroxy-butyrate) concentrations after treatment in lactating cows; type: in vivo, Holstein-Frisian cows; details: after treatment with all dosages (0.03, 0.3, 3 mg/kg bodyweight i.v.)
# Procedure: as §1
# [3] = tested on: lactating Holstein-Frisian cows; assay: Urinary glucose excretion normalized to urinary creatinine after single i.v. dosing in lactating cows; type: in vivo; details: i.v. 0.03, 0.3, 3 mg/kg bodyweight; urine ~8 h, ~24 h, ~48 h post treatment; FIG. 1
# Procedure: as §1
# [4] = tested on: lactating Holstein-Frisian cows; assay: Milk yield per milking after single i.v. dosing in lactating cows; type: in vivo; details: i.v. 0.03, 0.3, 3 mg/kg bodyweight after AM milking; PM milking about 8 hours after administration; FIG. 2
# Procedure: as §1
smiles,measurement,setting,value
"N#Cc1ccc([C@@H]2O[C@H](CO)[C@@H](O)[C@H](O)[C@H]2O)cc1Cc1ccc(C2CC2)cc1 [velagliflozin, Velagliflozin]",Velagliflozin plasma level,[1],linear dose to exposure relationship
same,blood glucose level,[2],within normal reference ranges
same,ketone body level,[2]; beta-hydroxy-butyrate,within normal reference ranges
same,urinary glucose excretion normalized to urinary creatinine,[3],increases in a dose/exposure dependent manner
same,milk yield of the subsequent milking (PM),[4],decreases in a dose/exposure dependent manner
